In PMC5274652, “Antagonizing Retinoic Acid Receptors Increases Myeloid Cell Production by Cultured Human Hematopoietic Stem Cells” (Archivum Immunologiae et Therapiae Experimentalis, 2016):

Key:
[1] = biological target: T1, human RARβ (Homo sapiens, UniProt P10826); experiment: Competition with [3H]-ATRA binding, nuclear extracts of Sf21 cells expressing RARβ; conditions: nuclear extracts of baculovirus-infected Sf21 cells, read-out: Binding affinity ED50, RARβ
T1 construct: made in house
T1 sequence (P10826 1-455): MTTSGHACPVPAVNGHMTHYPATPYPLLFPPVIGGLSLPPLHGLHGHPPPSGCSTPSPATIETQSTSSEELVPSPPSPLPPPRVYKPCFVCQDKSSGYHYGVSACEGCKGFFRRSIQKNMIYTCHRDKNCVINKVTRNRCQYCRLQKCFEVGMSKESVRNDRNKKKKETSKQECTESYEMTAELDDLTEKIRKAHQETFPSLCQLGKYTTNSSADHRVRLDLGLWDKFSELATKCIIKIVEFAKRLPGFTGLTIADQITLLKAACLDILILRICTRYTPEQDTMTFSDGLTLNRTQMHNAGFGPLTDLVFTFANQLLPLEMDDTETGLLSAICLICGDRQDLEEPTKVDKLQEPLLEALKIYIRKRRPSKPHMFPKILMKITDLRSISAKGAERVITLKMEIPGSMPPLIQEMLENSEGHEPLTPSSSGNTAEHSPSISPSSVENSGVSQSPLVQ

[2] = biological target: T2, human RARγ (Homo sapiens, UniProt P13631); experiment: Competition with [3H]-ATRA binding, nuclear extracts of Sf21 cells expressing RARγ; conditions: nuclear extracts of baculovirus-infected Sf21 cells, read-out: Binding affinity ED50, RARγ
T2 construct: made in house
T2 sequence (P13631 1-454): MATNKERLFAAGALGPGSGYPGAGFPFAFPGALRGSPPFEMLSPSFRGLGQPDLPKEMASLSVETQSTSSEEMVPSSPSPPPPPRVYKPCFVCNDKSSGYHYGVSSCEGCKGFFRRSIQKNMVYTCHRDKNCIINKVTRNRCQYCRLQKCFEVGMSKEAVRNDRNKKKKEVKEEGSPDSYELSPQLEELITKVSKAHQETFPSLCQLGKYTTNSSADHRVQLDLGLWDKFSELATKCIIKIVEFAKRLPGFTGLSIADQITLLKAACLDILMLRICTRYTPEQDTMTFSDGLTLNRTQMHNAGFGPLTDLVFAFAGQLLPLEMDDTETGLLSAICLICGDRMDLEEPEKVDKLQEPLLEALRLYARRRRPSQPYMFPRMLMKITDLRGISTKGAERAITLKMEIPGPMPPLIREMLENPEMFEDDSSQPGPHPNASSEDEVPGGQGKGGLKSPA

[3] = biological target: T3, human RARα (Homo sapiens, UniProt P10276); experiment: Competition with [3H]-ATRA binding, nuclear extracts of Sf21 cells expressing RARα; conditions: nuclear extracts of baculovirus-infected Sf21 cells, read-out: Binding affinity ED50, RARα
T3 construct: made in house
T3 sequence (P10276 1-462): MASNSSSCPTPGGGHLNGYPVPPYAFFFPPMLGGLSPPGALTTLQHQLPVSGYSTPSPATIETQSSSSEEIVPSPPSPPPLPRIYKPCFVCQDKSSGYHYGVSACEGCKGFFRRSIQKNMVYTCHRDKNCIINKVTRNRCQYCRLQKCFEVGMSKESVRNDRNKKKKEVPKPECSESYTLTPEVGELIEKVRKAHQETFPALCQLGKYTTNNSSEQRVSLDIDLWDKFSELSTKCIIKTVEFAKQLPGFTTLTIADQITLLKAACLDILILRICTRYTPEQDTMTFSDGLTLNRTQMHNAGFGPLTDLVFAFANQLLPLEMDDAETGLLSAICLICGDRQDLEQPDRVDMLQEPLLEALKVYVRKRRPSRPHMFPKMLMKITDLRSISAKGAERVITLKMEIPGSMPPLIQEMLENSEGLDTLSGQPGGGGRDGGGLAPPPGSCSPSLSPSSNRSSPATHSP

[4] = test system: lineage^−ve/CD133^+ve/CD34^+vehuHSC; experiment: Ex vivo expansion of lineage-ve/CD133+ve/CD34+ve huHSC; type: cell-based, human
Text: The cells used were CD34^+ve cells purified from the blood of normal human adult donors and post-mobilization of stem cells to the blood. Cells obtained and purified in this manner are used routinely by the National Blood Service Stem Cell Laboratory in Birmingham for bone marrow transplantation. Ethics approval for the use of adult human blood-mobilized stem cells (CD34^+vehuHSC) was from the West Midlands Research Ethics Committee. Informed consent was obtained by the regional National Blood Service Stem Cell Laboratory in Birmingham. CD34^+ve cells were purified to 99 % CD34^+ve, 97 % CD133^+ve, >99 % lineage^−ve (n = 15) using an anti-CD34 monoclonal antibody, immunomagnetic beads, and a CliniMACS magnetic separator. Purified cells were plated at 5 × 10^5 cells/ml in microtiter wells in 200 μl of either RPMI-1640 medium (R and D Systems, Abingdon, UK) or HPGM^TM hematopoietic growth medium (Lonza, UK) containing either 10 % FBS or 10 % human serum, antibiotics (100 U/ml penicillin and 100 μg/ml streptomycin) and stem cell factor (SCF), interleukin (IL)-3, and granulocyte-colony stimulating factor (G-CSF) (all from R and D Systems Abingdon, UK) as stated in the results. Cultures were fed every 2–3 days (with fresh compound), split into microtiter wells, and then expanded into 2 ml Costar wells to maintain a cell density of between 2.5 and 10 × 10^5 cells/ml. Cells were grown at 37 °C in 5 % CO2. […]
The expression of differentiation markers at the cell surface was determined by flow cytometry. Differentiation of NB-4 and KG1 cells was measured by staining using the monoclonal antibodies CD11b-FITC and CD14-PE and appropriately labeled isotype controls (all from ImmunoTools, Friesoythe, Germany). Differentiation of human CD34^+ve cells was measured by triple-color staining using various cocktails of phycoerythrin-, fluorescein isothyocyanate-, and PerCP-monoclonal antibodies (from Becton–Dickinson, San Jose, CA, USA). […] Cells were analyzed using a FACSCalibur, and data analysis was performed using the CellQuest Pro software (Becton–Dickinson, San Jose, CA, USA).

Q: With CCc1ccc(C2=CC(C)(C)Sc3ccc(C#Cc4ccc(C(=O)O)cc4)cc32)cc1 [AGN194310] as the molecule, how does the IC50 [1] read?
A: Its IC50 is 5 nM.

Q: And the IC50 [2]?
A: Its IC50 is 2 nM.

Q: And the IC50 [3]?
A: The IC50 was 4.3 nM.

Q: What about the “level of expansion of lineage−ve/CD133+ve/CD34+ve huHSC” value ([4]; 100 nM, day 30, HPGM, 10 % human serum, 100 ng/ml SCF, mean of seven donors, control ~eightfold) of the same molecule?
A: The value was ~ 18 fold.

Q: And the “expansion of lineage−ve/CD133+ve/CD34+ve cells” value ([4]; all 15 donors, control 8–10-fold)?
A: Its value is “around 20 fold”.
